Columns and labels:
[1] = test system: K. oxytoca; assay: Protective effect in experimentally-infected immunosuppressed mice (K. oxytoca); assay type: in vivo; settings: for % Mortality, K. oxytoca: cyclophosphamide-immunodepressed CD1 mice, 25 mg/kg/d i.p. day -5 through day -1, challenge day 0
From the text: Evaluation of the protective effects of ST 689 and ST 789 in experimentally-infected immunosuppressed mice.
Male CDl mice (Charles River, Italy), 6-10 weeks old, were used in experimental groups of 9-20 animals. Systemic infection in the mice was achieved by intrapcritoncal inoculation of a pathogenic species of Klebsiclla (K. oxytoca), Proteus (P. mirabilis), Serratia (S. marcescens),and Hscherichia (E. coli). Eighteen-hour broth cultures were used to prepare infectious inocula that were either sublethal (Proteus) or which corresponded to an LD30 (Serratia) and an LD10 (Escherichia, Klebsiella). The bacterial challenge, inoculated i.p. in 0.5 mL of 5% gastric mucin, was designed to cause the death of animals immunodepressed with cyclophosphamide (administered i.p. in 0.2 mL of sterile physiological solution at a dosage of 100 mg/kg) 5 days prior to infection. The compounds were administered i.p. at daily doses of 25 mg/kg from day -5 to day -1 with respect to the day of bacterial inoculation (day 0). The results are expressed as % mortality and were statistically analysed using Fisher's test (Biostatistics in Pharmacology, vol. 2, Pergamon Press).

[2] = test system: Sarcoma 180; assay: Protective effect in mice carrying Sarcoma 180; assay type: in vivo; settings: for % survival: CD1 mice carrying Sarcoma 180; for % survival / Died/Total / MST (Mean Survival Time; median): 25 mg/kg/d i.p. day +1 through +10; for Died/Total / MST (Mean Survival Time; median): CD1 mice, 1×10^4 Sarcoma 180 cells i.p.; for MST (Mean Survival Time; median): 25 mg/kg/day; for Body weight (x ± S.E.) of Sarcoma 180-carrying animals: 25 mg/kg/d i.p., in g
Description: Evaluation of the protective effect of ST 689 and ST 789 in tumour-carryingmice,
Outbred male CDI mice (Charles River, Italy), 7 weeks old, were used. Experimental groups containing 10 animals were inoculated i.p. with 1×10^4 Sarcoma 180 cells (ATCC, Rockville, Md., U.S.A.) in 0.1 mL of TC 199 medium. The compounds were administered intraperitoneally in 0.2 mL of sterile physiological solution at daily doses of 25 mg/kg from day +1 through day +10 relative to the day of tumour transplant (day 0). In addition, body weights of the animals were followed from day 0 through day 20. The weights of the animals can be indicative of the development of neoplastic processes. The activity of the compounds was evaluated in terms of % survival expressed as the Mean Survival Time (MST). The data reported in Table 4 indicate a substancial protective effect of ST 689 compared to ST 789 vis-a-vis % survival (20% vs. 10%) in terms of MST (21 vs. 17).

[3] = day +13, number in parentheses = animals still alive
[4] = day +15, number in parentheses = animals still alive
[5] = day +17, number in parentheses = animals still alive
[6] = day +20, number in parentheses = animals still alive

## O=c1[nH]cnc2c1cnn2CCCCCO [ST 689, 1,5-dihydro-1-(5-hydroxypentyl)-4H-pyrazolo-[3,4-d]-pyrimidin-4-one]
[1]
  % Mortality, K. oxytoca: 10%
[1]; immunodepressed mice, 25 mg/kg/d i.p.
  Protective activity in Klebsiella infection, in words: equal to that of ST 789
[2]
  % survival: 20%
  Died/Total: 8/10
  MST (Mean Survival Time; median): 21
[2]; compared to animals treated with ST 789
  Neoplastic proliferation judged from body weights, in words: diminution of neoplastic proliferation
[2]; day 0
  Body weight (x ± S.E.) of Sarcoma 180-carrying animals: 23.0 ± 0.38
[2]; day +1
  Body weight (x ± S.E.) of Sarcoma 180-carrying animals: 23.7 ± 0.34
[2]; day +3
  Body weight (x ± S.E.) of Sarcoma 180-carrying animals: 24.5 ± 0.50
[2]; day +6
  Body weight (x ± S.E.) of Sarcoma 180-carrying animals: 27.1 ± 0.62
[2]; day +8
  Body weight (x ± S.E.) of Sarcoma 180-carrying animals: 28.3 ± 0.97
[2]; day +10
  Body weight (x ± S.E.) of Sarcoma 180-carrying animals: 28.4 ± 0.81
[2]; [3]
  Body weight (x ± S.E.) of Sarcoma 180-carrying animals: 28.6 ± 0.89
[2]; [4]
  Body weight (x ± S.E.) of Sarcoma 180-carrying animals: 30.5 ± 1.28
[2]; [5]
  Body weight (x ± S.E.) of Sarcoma 180-carrying animals: 32.5 ± 1.70
[2]; [6]
  Body weight (x ± S.E.) of Sarcoma 180-carrying animals: 32.6 ± 1.85

## N=C(N)NCCC[C@H](NC(=O)OCCCCCn1cnc2c(=O)[nH]cnc21)C(=O)O [ST 789, N-alfa-5-(hypoxanthin-9-yl)-pentyloxycarbonylarginine, reference compound]
[1]
  % Mortality, K. oxytoca: 10%
[2]
  % survival: 10%
  Died/Total: 9/10
  MST (Mean Survival Time; median): 17
[2]; day 0
  Body weight (x ± S.E.) of Sarcoma 180-carrying animals: 22.8 ± 0.30
[2]; day +1
  Body weight (x ± S.E.) of Sarcoma 180-carrying animals: 23.6 ± 0.34
[2]; day +3
  Body weight (x ± S.E.) of Sarcoma 180-carrying animals: 24.8 ± 0.30
[2]; day +6
  Body weight (x ± S.E.) of Sarcoma 180-carrying animals: 27.6 ± 0.46
[2]; day +8
  Body weight (x ± S.E.) of Sarcoma 180-carrying animals: 29.5 ± 0.64
[2]; day +10
  Body weight (x ± S.E.) of Sarcoma 180-carrying animals: 31.5 ± 0.92
[2]; [3]
  Body weight (x ± S.E.) of Sarcoma 180-carrying animals: 32.2 ± 0.96
[2]; [4]
  Body weight (x ± S.E.) of Sarcoma 180-carrying animals: 33.4 ± 1.05
[2]; [5]
  Body weight (x ± S.E.) of Sarcoma 180-carrying animals: 33.7 ± 1.46
[2]; [6]
  Body weight (x ± S.E.) of Sarcoma 180-carrying animals: 34.8 ± 3.90

Reference: US5272151A, “Aminoacyl and oligopeptidyl derivatives of allopurinol exhibiting immunostimulatory activity, and pharmaceutical formulations containing these substances” (Sigma-Tau Industrie Farmaceutiche Riunite S.p.A., priority 1991, dated 1993)
